We go through 20 compounds from US12358921B2, “Antiviral heterocyclic compounds” (priority 2022, dated 2025).

This assay has as its system hMPV A2 TN/94-49. The assay is described as follows: HMPV antiviral assay Method 2 (LLC-MK2 cells with CP-100-356, ATP-Lite). Format: cell-based. As to conditions: hMPV A2 TN/94-49, LLC-MK2 cells, 4 μM CP-100-356, Method 2. How it is done: In vitro HMPV antiviral activity was evaluated using the clinical isolate A2 strain TN 94-49 (obtained from Dr. John Williams, Vanderbilt University, Tennessee) and LLC-MK2 cells (Millipore Sigma CB_85062804), an immortalized kidney epithelial cell line from Macaca mulatta. Compounds were resuspended in dimethyl sulfoxide (DMSO) at 10 mM, serially diluted and added to a 384-well source plate. Subsequently, the compounds were diluted and transferred onto 384-well assay plates using the Echo-650 automated liquid handling system (Beckman Coulter, Indiana). The test compounds were assessed in duplicate at a top concentration of 200 nM followed by 2.5-fold serial dilutions to give a total of 10 concentration points. DMSO control wells were also included on the assay plates and were either infected or not, acting as positive and negative controls. A2 TN 94-49 virus infections were performed in-suspension with LLC-MK2 cells. The cells were washed twice with PBS and removed from the cell-culture flask with 0.25% trypsin-EDTA (Thermo Fisher Scientific, MA). The trypsin-EDTA was inactivated by resuspending in 2% fetal bovine serum (FBS) and OptiMEM (ThermoFisher Scientific, MA) containing 1% antibiotic-antimycotic. Cells were pelleted by centrifuging for 5 minutes at 800 rpm, the supernatant was removed, and cells were re-suspended and washed in PBS plus 100 μg/mL CaCl2). This step was performed twice. Cells were then re-suspended in serum-free (SF)-OptiMEM containing 4 μg/mL TPCK-Trypsin (Sigma Aldrich, MO), 1% antibiotic-antimycotic (ThermoFisher Scientific, MA), 100 μg/mL CaCl2), and 4 μM of CP-100-356, a P-glycoprotein inhibitor. Cells were counted and seeded at a density of 5,000 cells/well, 12.5 μL/well. Virus infections were done at a multiplicity of infection (MOI) of 0.16 with 12.5 μL added per well. Virus infections were performed in infection media which contained SF-OptiMEM, 100 μg/mL CaCl2) and 1% antibiotic-antimycotic. HMPV viral stocks are suspended in infection media+5% glycerol, thus an equal volume of infection media+5% glycerol was added to uninfected wells to equalize the final % glycerol across all wells of the assay plate. The final concentration of TPCK-trypsin was 2 μg/mL. The final concentration of CP-100-356 was 2 μM. The assay plates were incubated at 37° C., 5% CO2 for 7 days. After 7 days incubation, 12.5 μL of ATP-Lite (PerkinElmer, MA) was added to each well and the raw luminescence values were determined using the Envision 2104 (Perkin Elmer, MA). The average of the raw luminescence values for the cells and virus only positive control wells was subtracted from all conditions tested and the percent cell health was determined by dividing these values by the average of the cells only negative control wells. EC50 values were then calculated by non-linear regression using a four-parameter curve logistic equation. The curve fit model employed was XLFit Dose Response One Site Model 200: y=(A+(B/(1+((x/C)^D)))), where A is the minimum y value, B is the maximum y value, C is the log EC50value, and D is the slope factor.
For the compound `COc1cc(C(=O)NC[C@@](O)(c2ccccc2)c2cc3c(c(-c4cc(S(C)(=O)=O)ccc4F)n2)OC[C@]3(C)C(N)=O)cc2cn(C3(F)CC3)nc12` [Example 372], the half-maximal effective concentration (EC50) is above 0.2 µM.

In the case of `COc1c(F)ccc(-c2nc([C@@](O)(CNC(=O)c3cc(OC)c4nn(C5(F)CC5)cc4c3)c3ccccc3)cc3c2OC[C@]3(C)C(N)=O)c1Cl` [Example 375], the concentration giving a half-maximal response (EC50) was below 0.2 µM.

For `COc1cc(C(=O)NC[C@@](O)(c2ccccc2)c2cc3c(c(-c4cc(Cl)c(F)cc4F)n2)OC[C@]3(C)C(N)=O)cc2c1OCCC2` [Example 93], the concentration for a half-maximal effect (EC50) was above 0.2 µM.

Compound `COc1cc(C(=O)NC[C@@](O)(c2ccccc2)c2cc3c(c(-c4cccc(F)c4F)n2)OC[C@]3(C)C(N)=O)cc2cn(C3(F)CC3)nc12` [Example 367] yielded a concentration for a half-maximal effect (EC50) below 0.2 µM.

`COc1cc(C(=O)NC[C@@](O)(c2ccccc2)c2cc3c(c(-c4cc(Cl)c(F)cc4F)n2)OC[C@]3(C)C(N)=O)cc(O)c1NC(=O)C1(F)CC1` [Example 242]: the 50% effective concentration (EC50) is above 0.2 µM.

`COc1cc(C(=O)NC[C@@](O)(c2ccccc2)c2cc3c(c(-c4ccc5c(c4)OC(F)(F)O5)n2)OC[C@]3(C)C(N)=O)cc2cc(Cl)cnc12` [Example 202] gave a 50% effective concentration (EC50) below 0.2 µM.

Take `C[C@]1(C(N)=O)COc2c1cc([C@@](O)(CNC(=O)c1ccc3nc(C4CC4)oc3c1)c1ccccc1)nc2-c1cc(F)c(F)cc1F` [Example 194]: the EC50 was below 0.2 µM.

In turn, `COc1cc(C(=O)NC[C@](O)(c2cc3c(c(-c4cc(Cl)c(F)cc4F)n2)OC[C@]3(C)C(N)=O)c2ccn(C)n2)cc2cn(C3CC3)nc12` [Example 480] registered an EC50 below 0.2 µM.

As to `C[C@]1(C(N)=O)COc2c1cc([C@@](O)(CNC(=O)c1ccc3nc(C(F)F)oc3c1)c1ccccc1)nc2-c1cc(Cl)c(F)cc1F` [Example 222], the EC50 is above 0.2 µM.

In the case of `CC(C)c1nc2ccc(C(=O)NC[C@@](O)(c3ccccc3)c3cc4c(c(-c5cc(Cl)c(F)cc5F)n3)OC[C@]4(C)C(N)=O)cc2o1` [Example 224], the EC50 is above 0.2 µM.

Regarding `C[C@]1(C(N)=O)COc2c1cc([C@@](O)(CNC(=O)c1cc(Cl)c3nn(C(F)F)cc3c1)c1ccccc1)nc2-c1cc(Cl)c(F)cc1F` [Example 102], the half-maximal effective concentration (EC50) was above 0.2 µM.

`COc1cc(C(=O)NC[C@@](O)(c2ccccc2)c2cc3c(c(-c4cc(Cl)ccc4F)n2)OC[C@]3(C)C(N)=O)cc2oc(C3CC3)nc12` [Example 331] gave an EC50 below 0.2 µM.

Compound `COc1cc(C(=O)NC[C@@](O)(c2cnoc2)c2cc3c(c(-c4cc(Cl)c(F)cc4F)n2)OC[C@]3(C)C(N)=O)cc2cn(C3CC3)nc12` [Example 491] had an EC50 below 0.2 µM.

As for `C[C@]1(C(N)=O)COc2c1cc([C@@](O)(CNC(=O)c1cc(OC3CC3)n3nc(C4CC4)cc3c1)c1cccc(F)c1)nc2-c1cccc(Cl)c1Cl` [Example 335], the concentration giving a half-maximal response (EC50) is below 0.2 µM.

With `Cc1nc2c(OC3CC3)cc(C(=O)NC[C@@](O)(c3ccccc3)c3cc4c(c(-c5cc(Cl)c(F)cc5F)n3)OC[C@]4(C)C(N)=O)cc2s1` [Example 189], the 50% effective concentration (EC50) was below 0.2 µM.

For `COc1cc(C(=O)NC[C@@](O)(c2cnc(C3CC3)nc2)c2cc3c(c(-c4cc(Cl)c(F)cc4F)n2)OC[C@]3(C)C(N)=O)cc2cn(C3CC3)nc12` [Example 478], the concentration giving a half-maximal response (EC50) is below 0.2 µM.

Compound `COc1cc(C(=O)NCC(O)(c2cccc(F)c2)c2cc3c(c(-c4cccc(Cl)c4C#N)n2)OC[C@]3(C)C(N)=O)cc2cn(C3(F)CC3)nc12` (some centres unmarked) [Example 399] displayed an EC50 above 0.2 µM.

`COc1cc(C(=O)NC[C@@](O)(c2cncnc2)c2cc3c(c(-c4cc(Cl)c(F)cc4F)n2)OC[C@]3(C)C(N)=O)cc2cn(C3CC3)nc12` [Example 479] registered an EC50 below 0.2 µM.

`Cc1cc(C(=O)NC[C@@](O)(c2ccccc2)c2cc3c(c(-c4cc(Cl)c(F)cc4F)n2)OC[C@]3(C)C(N)=O)cc2cn[nH]c12` [Example 118] displayed an EC50 below 0.2 µM.

As to `C[C@]1(C(N)=O)COc2c1cc([C@@](O)(CNC(=O)c1ccc3nc(-c4ccc5nc(C(F)F)oc5c4)oc3c1)c1ccccc1)nc2-c1cc(Cl)c(F)cc1F` [Example 223], the EC50 was above 0.2 µM.

By EC50 is commonly meant the concentration giving half of the maximal effect.
